Laboratory results as given in paper PMC8424689 (ACS infectious diseases, 2021).

Target: SARS-CoV-2 main protease (M^pro) (Severe acute respiratory syndrome coronavirus 2, UniProt P0DTD1)

Substance | Fold change = (kcat/KM) nsp8/9 analog /(kcat/KM) nsp8/9 | Km [µM] | kcat [S^−1] | kcat/KM (catalytic efficiency) | fold difference in kcat/KM, nsp4/5 versus nsp8/9 [fold]
RVVKLQ/ANELMP [nsp8/9 N1′A] | 2.9 | 22 ± 3 | 0.022 ± 0.001 | 1.0 ± 0.1 × 10^3 M^−1 s^−1 | –
RVVKLQ/NAELMP [nsp8/9 N2′A] | 2.1 | 46 ± 5 | 0.034 ± 0.002 | 7.5 ±0.8 × 10^2 M^−1 s^−1 | –
RVVKLQ/NDELMP [nsp8/9 N2′D] | 0.4 | 19 ± 1 | 0.0029 ± 0.0001 | 1.6 ± 1.2 × 10^2 M^−1 s^−1 | –
RVVKLQ/NNELMP [nsp8/9] | 1.0 | 36 ± 6 | 0.013 ± 0.001 | 3.6 ± 0.7 × 10^2 M^−1 s^−1 | –
TSAVLQ/SGFRKM [nsp4/5] | – | 41 ± 9 | 0.52 ± 0.07 | 1.3 ± 0.3 × 10^4 M^−1 s^−1 | 36
